Measurements: patent publication US12551464B2, “N-(3-amino-3-oxopropyl)-2-[(1-methyl-4-nitro-1H-imidazol-5-yl)thio]benzamide and its use for treating HIV infection” (The United States of America, as represented by the …, priority 2019, dated 2026)
Where “and” joins values, the source holds several entries; their conditions need not be identical. Equal entries are not always repeated. Where two headings read alike, the source gives them in different places.

Columns and labels:
[1] = Toxicity of metabolite, method not described
[2] = tested on: simian immunodeficiency virus (SIV); experiment: Viral load by RT-PCR in SIV-infected rhesus macaques; assay type: in vivo
Description: (§1) Two SIV-infected rhesus macaques were treated with 300 mg/kg of the compound of formula (I) once daily via oral gavage. Viral load before treatment and after 6 months of treatment were measured by RT-PCR. Viral infectivity was determined by measuring the amount of p27 Gag (in pg/mL) in a viral infectivity assay wherein virus isolated from the animals was used to infect CEMx174 cells, followed by ELISA. Viral samples were diluted 1:1000 prior to assay. The CD4 count for each monkey was measured after 6 months.

[3] = tested on: simian immunodeficiency virus (SIV); experiment: Viral infectivity assay: virus isolated from the animals used to infect CEMx174 cells, p27 Gag ELISA; assay type: in vivo, rhesus macaques
Description: as §1

[4] = CD4 count in SIV-infected rhesus macaques; assay type: in vivo
Description: as §1

[5] = Maximum tolerated dose and dose range finding study in rats; assay type: in vivo
Description: The maximum tolerated dose in rats of the compound of formula (I) was determined to be greater than 2 g/day.

[6] = Pharmacokinetics in cynomolgus macaques; assay type: in vivo; details: 300 mg/kg p.o. oral gavage
Description: The compound of formula (I) was administered to cynomolgus macaques at a dose of 300 mg/kg p.o. via oral gavage.

[7] = tested on: CXCR4 Tropic Clade B HIV-192HT599; experiment: Anti-HIV activity in human PBMCs, reverse transcriptase in culture supernatants; assay type: cell-based; details: PBMC, 7 days in culture
Description: (§2) PHA-P stimulated PBMCs from three donors were pooled together and resuspended in fresh tissue culture medium at 1×10^6 cells/mL and plated in the interior wells of a 96 well round bottom microplate at 50 μL/well. A 100 μL volume of 9 concentrations of the compound serially diluted were transferred to the round bottom 96 well plate containing the cells in triplicate. 50 μL of HIV-1 at a predetermined dilution was added. Each plate contained cell control wells and virus control wells in parallel with the experimental wells. After 7 days in culture, efficacy was evaluated by measuring the reverse transcriptase in the culture supernatants and the cells were stained with the tetrazolium dye XTT to evaluate cytotoxicity.

[8] = Cytotoxicity in human PBMCs, XTT staining; assay type: cell-based; details: human, PHA-P stimulated PBMCs pooled from three donors; Incubation Time 0 hours; 7 days in culture; read-out: TC50
Description: as §2

PBMCs = experiment: Cytotoxicity in human PBMCs, XTT staining; assay type: cell-based; details: 7 days in culture, read-out: TC50 (the source's name)
Description: as §2

Question: Which toxicity [1] does the source give for CSc1ccccc1C(=O)NCCC(N)=O [Compound 3] here?
Answer: non-toxic

Question: For Cn1cnc([N+](=O)[O-])c1Sc1ccccc1C(=O)NCCC(N)=O [compound of formula (I), N-(3-amino-3-oxopropyl)-2-[(1-methyl-4-nitro-1H-imidazol-5-yl)thio]benzamide], which “Treated Viral Load” value ([2]; 300 mg/kg once daily oral gavage, after 6 months of treatment, RT-PCR) is on record?
Answer: 2.86 × 10^4 and 1.73 × 10^3

Question: What about the “reduction in viral load” value ([2]; 300 mg/kg p.o. daily over 6 months, versus before treatment) of the same molecule?
Answer: approximately one

Question: What about the “Treated Viral Infectivity (p27 Gag)” value ([3]; 300 mg/kg once daily oral gavage, 6 months, viral samples diluted 1:1000, CEMx174 cells, ELISA) of the same molecule?
Answer: <0.1 pg/mL

Question: And the “viral infectivity of SIV from treated animals compared with before treatment” value ([3]; 300 mg/kg p.o. daily over 6 months)?
Answer: significantly decreased

Question: What about the “Treated CD4 Count” value ([4]; 300 mg/kg once daily oral gavage, after 6 months) of the same molecule?
Answer: 365 and 363

Question: And the “CD4 counts, assessment” value ([4]; after 6 months of 300 mg/kg p.o. daily)?
Answer: deemed normal

Question: What about the “adverse clinical outcomes in dose range finding study” value ([5]; 2 g/kg p.o., once per day for 14 days) of the same molecule?
Answer: did not show adverse clinical outcomes

Question: What about the MTD at 14 days ([5]; rat, in vivo, oral, 2 g/kg) of the same molecule?
Answer: > 2000 mg/kg/day

Question: And the metabolism in blood [6]?
Answer: converted to two major metabolites

Question: What about the AUC ([6]; cynomolgus monkey, blood) of the same molecule?
Answer: 5780 ng·h/mL

Question: And the half-life ([6]; cynomolgus monkey, blood)?
Answer: 7.6 h

Question: And the EC50 ([7]; Incubation Time 0 hours)?
Answer: 3.23 µM

Question: And the EC50 ([7]; Incubation Time 2 hours)?
Answer: 7.12 µM

Question: What about the EC50 ([7]; Incubation Time 8 hours) of the same molecule?
Answer: 5.18 µM

Question: And the EC50 ([7]; Incubation Time 24 hours)?
Answer: 4.45 µM

Question: What about the CC50 at 7 days [8] of the same molecule?
Answer: > 100 µM

Question: What about the CC50 (PBMCs; Incubation Time 2 hours) of the same molecule?
Answer: > 100 µM

Question: And the CC50 (PBMCs; Incubation Time 8 hours)?
Answer: > 100 µM

Question: And the CC50 (PBMCs; Incubation Time 24 hours)?
Answer: > 100 µM
